{"source": "patent US11725025B2", "about": "“Progesterone phosphate analogs and uses related thereto” (EMORY UNIVERSITY, priority 2013, dated 2023)", "origin": "cited, not measured here", "key": {"[1]": {"system": "moderate to severe TBI patients", "conditions": "3 days of intravenous progesterone treatment; 100 moderate to severe TBI patients"}}, "data": [{"compound": "CC(=O)[C@H]1CC[C@H]2[C@@H]3CCC4=CC(=O)CC[C@]4(C)[C@H]3CC[C@]12C", "note": "[progesterone]", "values": [{"measurement": "functional outcomes at 30 days post-injury", "setting": "[1]", "result": "significantly improved"}, {"measurement": "reduction of mortality", "setting": "[1]", "result": "over 60%"}, {"measurement": "solubility in aqueous-based formulations", "result": "insoluble"}]}]}
